Measurements taken from PMC7413254 (Nature Communications, 2020).
Read-outs that look alike come from different tables or passages of the source.

Key:
[1] = test system: non-expressing oocytes; experiment: cells; type: cell-based, Xenopus laevis; settings: non-expressing oocytes, total [3H]CQ transport, normalised to the oocyte type control
How it was run: (§1)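 Radioactivity accumulated per oocyte, read by liquid scintillation after 10% SDS lysis, served as the uptake measure. Incubations ran 1.5 h at 27.5 °C in ND96 at pH 5.5, matching digestive-vacuole acidity.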

[2] = target: T1, PfCRT^3D7 (Plasmodium falciparum, UniProt Q8IBZ9); experiment: cell-based; type: cell-based; settings: PfCRT3D7 oocytes, total [3H]CQ transport, normalised to the oocyte type control
T1 sequence (Q8IBZ9 59-398): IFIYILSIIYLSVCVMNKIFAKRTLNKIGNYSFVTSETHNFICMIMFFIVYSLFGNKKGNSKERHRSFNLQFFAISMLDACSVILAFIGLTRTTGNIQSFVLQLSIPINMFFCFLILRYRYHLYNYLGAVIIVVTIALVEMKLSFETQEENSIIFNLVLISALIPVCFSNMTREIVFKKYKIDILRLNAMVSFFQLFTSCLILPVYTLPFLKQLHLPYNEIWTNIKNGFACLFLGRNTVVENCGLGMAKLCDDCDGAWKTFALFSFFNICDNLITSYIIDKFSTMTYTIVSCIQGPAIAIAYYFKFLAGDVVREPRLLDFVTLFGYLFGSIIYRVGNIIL
How it was run: as §1

[3] = target: T2, PfCRT^Dd2 (Plasmodium falciparum, UniProt Q9N623, A220S/I356T/K76T/M74I/N326S/N75E/Q271E/R371I); experiment: [3H]CQ uptake into Xenopus oocytes, cis-inhibition by unlabelled solute; type: cell-based; settings: PfCRTDd2 oocytes, background [3H]CQ accumulation subtracted, normalised to oocyte type control
T2 sequence (Q9N623 whole entry A220S/I356T/K76T/M74I/N326S/N75E/Q271E/R371I): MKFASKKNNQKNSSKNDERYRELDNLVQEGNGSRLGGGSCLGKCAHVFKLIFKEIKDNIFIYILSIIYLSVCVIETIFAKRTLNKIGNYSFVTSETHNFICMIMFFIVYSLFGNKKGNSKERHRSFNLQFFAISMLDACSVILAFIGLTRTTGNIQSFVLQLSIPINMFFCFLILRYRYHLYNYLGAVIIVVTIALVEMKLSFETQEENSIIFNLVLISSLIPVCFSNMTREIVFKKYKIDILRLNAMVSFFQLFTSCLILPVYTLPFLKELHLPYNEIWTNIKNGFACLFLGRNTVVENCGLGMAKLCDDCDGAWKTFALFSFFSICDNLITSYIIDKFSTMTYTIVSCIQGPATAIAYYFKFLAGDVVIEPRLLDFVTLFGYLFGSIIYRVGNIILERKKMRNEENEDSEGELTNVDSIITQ
How it was run: as §1

[4] = target: T3, PfCRT^Ecu1110 (Plasmodium falciparum, UniProt Q9N623, A220S/I356L/K76T/N326D); experiment: as above; type: cell-based; settings: for Uptake of [3H]CQ (% PfCRTEcu1110 control), cis-inhibition / PfCRT-mediated [3H]CQ transport, cis-inhibition (% PfCRTEcu1110 control): PfCRTEcu1110 oocytes; for Uptake of [3H]CQ (% PfCRTEcu1110 control), cis-inhibition: total [3H]CQ transport, normalised to the oocyte type control; for PfCRT-mediated [3H]CQ transport, cis-inhibition (% PfCRTEcu1110 control): background [3H]CQ accumulation subtracted, normalised to oocyte type control; for [3H]CQ transport (% PfCRTEcu1110 control), cis-inhibition, PfCRTEcu1110: PfCRT-mediated component (background subtracted), sheet title says normalised to PfCRTDd2 control, mean ± SEM, SEM
T3 sequence (Q9N623 whole entry A220S/I356L/K76T/N326D): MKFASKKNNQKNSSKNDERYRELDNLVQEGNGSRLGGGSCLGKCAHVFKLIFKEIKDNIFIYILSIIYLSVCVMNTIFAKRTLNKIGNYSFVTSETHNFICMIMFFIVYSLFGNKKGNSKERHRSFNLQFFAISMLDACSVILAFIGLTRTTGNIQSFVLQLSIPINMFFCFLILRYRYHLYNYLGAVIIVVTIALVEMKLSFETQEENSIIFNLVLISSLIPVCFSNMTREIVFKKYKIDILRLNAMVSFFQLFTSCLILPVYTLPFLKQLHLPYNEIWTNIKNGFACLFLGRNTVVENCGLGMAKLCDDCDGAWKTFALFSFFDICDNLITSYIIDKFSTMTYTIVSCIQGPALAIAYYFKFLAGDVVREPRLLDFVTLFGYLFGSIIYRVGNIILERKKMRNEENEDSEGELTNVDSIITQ
How it was run: as §1

[5] = test system: non-expressing oocytes; type: cell-based, Xenopus laevis; settings: non-expressing oocytes, total [3H]CQ transport, normalised to the oocyte type control
How it was run: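 Oocytes (ten per treatment, ≥4 independent frogs/days) were preloaded by injecting VF-6 in 25 nL ND96 at pH 5.0, 5.5, 6.0 or 7.0, or Na^+-free choline buffer, then uptake run 1.5 h, 27.5 °C, ND96 pH 5.5 by default. Internal concentrations assumed ~400 nL oocyte volume.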

[6] = target: T1, PfCRT^3D7; experiment: cell-based; type: cell-based; settings: PfCRT3D7 oocytes; for Uptake of [3H]CQ (% PfCRT3D7 control), trans-stimulation: total [3H]CQ transport, normalised to the oocyte type control; for PfCRT-mediated [3H]CQ transport, trans-stimulation (% PfCRT3D7 control): normalised to oocyte type control
How it was run: (§2)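 Transport measured in Xenopus oocytes expressing the transporters, 1.5 h at 27.5 °C in ND96 pH 5.5 unless noted. For trans-stimulation, VF-6 injected in 25 nL ND96 at pH 5.0–7.0 or Na^+-free (choline) buffer; intracellular levels based on ~400 nL oocyte volume. Ten oocytes per treatment, ≥4 experiments.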

[7] = target: T2, PfCRT^Dd2; experiment: cell-based; type: cell-based; settings: for Uptake of [3H]CQ (% PfCRTDd2 control), trans-stimulation / PfCRT-mediated [3H]CQ transport, trans-stimulation (% PfCRTDd2 control): PfCRTDd2 oocytes; for Uptake of [3H]CQ (% PfCRTDd2 control), trans-stimulation: total [3H]CQ transport, normalised to the oocyte type control; for PfCRT-mediated [3H]CQ transport, trans-stimulation (% PfCRTDd2 control): normalised to oocyte type control; for [3H]CQ transport (% PfCRTDd2 control), trans-stimulation, PfCRTDd2: PfCRT-mediated component (background subtracted), mean ± SEM, SEM
How it was run: as §2

[8] = target: T3, PfCRT^Ecu1110; experiment: cell-based; type: cell-based; settings: for Uptake of [3H]CQ (% PfCRTEcu1110 control), trans-stimulation / PfCRT-mediated [3H]CQ transport, trans-stimulation (% PfCRTEcu1110 control): PfCRTEcu1110 oocytes; for Uptake of [3H]CQ (% PfCRTEcu1110 control), trans-stimulation: total [3H]CQ transport, normalised to the oocyte type control; for PfCRT-mediated [3H]CQ transport, trans-stimulation (% PfCRTEcu1110 control): normalised to oocyte type control; for [3H]CQ transport (% PfCRTDd2 control), trans-stimulation, PfCRTEcu1110: PfCRT-mediated component (background subtracted), sheet title says normalised to PfCRTDd2 control, mean ± SEM, SEM
How it was run: as §2

[9] = target: T4, PfNT1 (Plasmodium falciparum, UniProt Q8IDM6); experiment: cell-based; type: cell-based; settings: PfNT1 oocytes, total [3H]CQ transport, normalised to the oocyte type control
T4 construct: expressed in transfected cells; host or cells: Xenopus laevis oocytes (stage V-VI), cRNA-injected
T4 sequence (Q8IDM6 whole entry): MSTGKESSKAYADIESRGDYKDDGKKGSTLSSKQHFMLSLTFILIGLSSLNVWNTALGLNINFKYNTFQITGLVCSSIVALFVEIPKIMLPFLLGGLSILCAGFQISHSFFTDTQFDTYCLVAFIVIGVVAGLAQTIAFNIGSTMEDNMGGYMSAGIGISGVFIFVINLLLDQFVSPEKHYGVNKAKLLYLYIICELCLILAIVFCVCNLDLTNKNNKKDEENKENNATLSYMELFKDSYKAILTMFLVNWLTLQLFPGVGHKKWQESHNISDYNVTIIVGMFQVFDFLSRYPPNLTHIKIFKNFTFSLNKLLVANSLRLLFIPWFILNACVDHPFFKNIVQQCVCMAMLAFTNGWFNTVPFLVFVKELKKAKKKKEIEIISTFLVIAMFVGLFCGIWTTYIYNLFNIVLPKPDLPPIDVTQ
How it was run: as §2

[10] = [test solute]i = 45 mM (30 mM for some solutes due to solubility)
[11] = [test solute]i = 5 mM (intracellular)
[12] = [test solute]i = 45 mM (intracellular; 30 mM for some solutes due to solubility)
[13] = [test solute]i = 5 mM (injected)

For PENF [PEF-4], the “Uptake of [3H]CQ (% non-expressing oocyte control), cis-inhibition” value ([1]; [test solute] = 0.5 mM) was 99 ± 5.8 % non-expressing oocyte control, the “Uptake of [3H]CQ (% non-expressing oocyte control), cis-inhibition” value ([1]; [test solute] = 1 mM) was 98 ± 4.6 % non-expressing oocyte control and the “Uptake of [3H]CQ (% non-expressing oocyte control), cis-inhibition” value ([1]; [test solute] = 2 mM) was 99 ± 4.4 % non-expressing oocyte control. The “Uptake of [3H]CQ (% PfCRT3D7 control), cis-inhibition” value ([2]; [test solute] = 0.5 mM) was 100 ± 5.3 % PfCRT3D7 control, the “Uptake of [3H]CQ (% PfCRT3D7 control), cis-inhibition” value ([2]; [test solute] = 1 mM) was 98 ± 3.5 % PfCRT3D7 control and the “Uptake of [3H]CQ (% PfCRT3D7 control), cis-inhibition” value ([2]; [test solute] = 2 mM) was 100 ± 4.4 % PfCRT3D7 control. For the same substance, the “PfCRT-mediated [3H]CQ transport, cis-inhibition (% PfCRTDd2 control)” value ([3]; [test solute] = 0.5 mM) was 52 ± 2.0 % PfCRTDd2 control, the “PfCRT-mediated [3H]CQ transport, cis-inhibition (% PfCRTDd2 control)” value ([3]; [test solute] = 1 mM) was 37 ± 2.1 % PfCRTDd2 control and the “PfCRT-mediated [3H]CQ transport, cis-inhibition (% PfCRTDd2 control)” value ([3]; [test solute] = 2 mM) was 17 ± 0.3 % PfCRTDd2 control. For the same substance, the “Uptake of [3H]CQ (% PfCRTEcu1110 control), cis-inhibition” value ([4]; [test solute] = 0.5 mM) was 55 ± 4.2 % PfCRTEcu1110 control, the “Uptake of [3H]CQ (% PfCRTEcu1110 control), cis-inhibition” value ([4]; [test solute] = 1 mM) was 45 ± 4.7 % PfCRTEcu1110 control and the “Uptake of [3H]CQ (% PfCRTEcu1110 control), cis-inhibition” value ([4]; [test solute] = 2 mM) was 34 ± 3.4 % PfCRTEcu1110 control. For the same substance, the “PfCRT-mediated [3H]CQ transport, cis-inhibition (% PfCRTEcu1110 control)” value ([4]; [test solute] = 0.5 mM) was 49 ± 2.6 % PfCRTEcu1110 control, the “PfCRT-mediated [3H]CQ transport, cis-inhibition (% PfCRTEcu1110 control)” value ([4]; [test solute] = 1 mM) was 40 ± 3.5 % PfCRTEcu1110 control and the “PfCRT-mediated [3H]CQ transport, cis-inhibition (% PfCRTEcu1110 control)” value ([4]; [test solute] = 2 mM) was 28 ± 2.1 % PfCRTEcu1110 control. For the same substance, the “[3H]CQ transport (% PfCRTEcu1110 control), cis-inhibition, PfCRTEcu1110” value ([4]; [test solute] = 0.5 mM) was 15 ± 0.1 % PfCRTEcu1110 control, the “[3H]CQ transport (% PfCRTEcu1110 control), cis-inhibition, PfCRTEcu1110” value ([4]; [test solute] = 1 mM) was 13 ± 0.3 % PfCRTEcu1110 control and the “[3H]CQ transport (% PfCRTEcu1110 control), cis-inhibition, PfCRTEcu1110” value ([4]; [test solute] = 2 mM) was 9.0 ± 0.01 % PfCRTEcu1110 control. For the same substance, the “Uptake of [3H]CQ (% non-expressing oocyte control), trans-stimulation” value ([5]; [test solute]i = 5 mM) was 97 ± 3.5 % non-expressing oocyte control, the “Uptake of [3H]CQ (% non-expressing oocyte control), trans-stimulation” value [5, 10] was 100 ± 3.2 % non-expressing oocyte control and the “Uptake of [3H]CQ (% PfCRT3D7 control), trans-stimulation” value ([6]; [test solute]i = 5 mM) was 135 ± 6.8 % PfCRT3D7 control. The “Uptake of [3H]CQ (% PfCRT3D7 control), trans-stimulation” value [6, 10] was 151 ± 8.0 % PfCRT3D7 control, the “PfCRT-mediated [3H]CQ transport, trans-stimulation (% PfCRT3D7 control)” value [6, 11] was 128 ± 3.6 % PfCRT3D7 control and the “PfCRT-mediated [3H]CQ transport, trans-stimulation (% PfCRT3D7 control)” value [6, 12] was 145 ± 4.7 % PfCRT3D7 control. For the same substance, the “Uptake of [3H]CQ (% PfCRTDd2 control), trans-stimulation” value ([7]; [test solute]i = 5 mM) was 102 ± 2.2 % PfCRTDd2 control, the “Uptake of [3H]CQ (% PfCRTDd2 control), trans-stimulation” value [7, 10] was 99 ± 2.8 % PfCRTDd2 control and the “PfCRT-mediated [3H]CQ transport, trans-stimulation (% PfCRTDd2 control)” value [7, 11] was 100 ± 3.2 % PfCRTDd2 control. The “PfCRT-mediated [3H]CQ transport, trans-stimulation (% PfCRTDd2 control)” value [7, 12] was 97 ± 3.2 % PfCRTDd2 control, the “[3H]CQ transport (% PfCRTDd2 control), trans-stimulation, PfCRTDd2” value [7, 13] was 100 ± 3.2 % PfCRTDd2 control and the “[3H]CQ transport (% PfCRTDd2 control), trans-stimulation, PfCRTDd2” value [7, 10] was 97 ± 3.2 % PfCRTDd2 control. The “Uptake of [3H]CQ (% PfCRTEcu1110 control), trans-stimulation” value ([8]; [test solute]i = 5 mM) was 121 ± 3.2 % PfCRTEcu1110 control, the “Uptake of [3H]CQ (% PfCRTEcu1110 control), trans-stimulation” value [8, 10] was 132 ± 3.7 % PfCRTEcu1110 control and the “PfCRT-mediated [3H]CQ transport, trans-stimulation (% PfCRTEcu1110 control)” value [8, 11] was 118 ± 1.1 % PfCRTEcu1110 control. The “PfCRT-mediated [3H]CQ transport, trans-stimulation (% PfCRTEcu1110 control)” value [8, 12] was 128 ± 2.0 % PfCRTEcu1110 control, the “[3H]CQ transport (% PfCRTDd2 control), trans-stimulation, PfCRTEcu1110” value [8, 13] was 36 ± 1.6 % PfCRTEcu1110 control and the “[3H]CQ transport (% PfCRTDd2 control), trans-stimulation, PfCRTEcu1110” value [8, 10] was 39 ± 1.3 % PfCRTEcu1110 control. The “Uptake of [3H]CQ (% PfNT1 control), trans-stimulation” value ([9]; [test solute]i = 5 mM) was 101 ± 2.2 % PfNT1 control and the “Uptake of [3H]CQ (% PfNT1 control), trans-stimulation” value [9, 10] was 99 ± 2.7 % PfNT1 control.
